# Data taken from patent US7074789B2, “Kinase inhibitors” (Amgen Inc., priority 1999, dated 2006).
# Experiments:
# Assay type in all cases: biochemical
# [1] = target: T1, FGFR1 (Homo sapiens, UniProt P11362); assay: Kinase inhibition assay (33P transfer), FGFR1; settings: read-out: FGFR1-1
# T1 construct: Kinases are expressed as either kinase domains or full length constructs; made in house
# [2] = target: T2, Lck (Homo sapiens, UniProt P06239); assay: Kinase inhibition assay (33P transfer), Lck; settings: read-out: Lck-1
# T2 construct: Kinases are expressed as either kinase domains or full length constructs; made in house
# Outline: (§1)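 Activity was read as 33P incorporation, counted by liquid scintillation after a 0.5% phosphoric acid wash, into poly(Glu,Tyr) 4:1 or poly(Arg,Ser) 3:1 substrates coated on plates. Enzymes were tagged (GST or polyHis) kinase domains or full-length proteins from bacterial or insect-cell expression, sometimes with regulatory polypeptides.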
# [3] = target: T3, IGFR-1 (Homo sapiens, UniProt P08069); assay: Kinase inhibition assay, IGFR-1 (Table 2); settings: Table 2, kinase inhibition class
# T3 construct: Kinases are expressed as either kinase domains or full length constructs; made in house
# [4] = target: T4, AKT (Homo sapiens, UniProt Q9Y243); assay: Kinase inhibition assay (33P transfer), AKT; settings: Table 2, kinase inhibition class; read-out: AKT3-1
# T4 construct: Kinases are expressed as either kinase domains or full length constructs; made in house
# Outline: as §1
# [5] = target: T5, Fyn (Homo sapiens, UniProt P06241); assay: Kinase inhibition assay (33P transfer), Fyn; settings: read-out: Fyn-1
# T5 construct: Kinases are expressed as either kinase domains or full length constructs; made in house
# Outline: (§2)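 Read-out: scintillation counts of 33P moved from ATP onto synthetic peptide polymer coated on the well surface, after washing with 0.5% phosphoric acid. Enzymes were tagged (GST or polyHistidine) and came from bacterial or insect-cell expression. IC50 marks 50% loss of incorporated label.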
# [6] = target: T6, EGFR (Homo sapiens, UniProt P00533); assay: Kinase inhibition assay (33P transfer), EGFR; settings: Table 2, kinase inhibition class; read-out: EGFR-1
# T6 construct: Kinases are expressed as either kinase domains or full length constructs; made in house
# Outline: as §2
# [7] = target: T7, PDGFRB (Homo sapiens, UniProt P09619); assay: Kinase inhibition assay (33P transfer), PDGFRB; settings: read-out: PDGFRB-1
# T7 construct: Kinases are expressed as either kinase domains or full length constructs; made in house
# [8] = target: T8, Src (Homo sapiens, UniProt P12931); assay: Kinase inhibition assay (33P transfer), Src; settings: Table 6, Src-1 kinase inhibition class
# T8 construct: Kinases are expressed as either kinase domains or full length constructs; made in house
# Outline: as §2
# [9] = target: T9, Ret-1 (Homo sapiens, UniProt P07949); assay: Kinase inhibition assay (33P transfer), Ret; settings: Table 6, Ret-1 kinase inhibition class
# T9 construct: Kinases are expressed as either kinase domains or full length constructs; made in house
# [10] = target: T10, Flt-1 (Homo sapiens, UniProt P17948); assay: Kinase inhibition assay (33P transfer), Flt-1
# T10 construct: Kinases are expressed as either kinase domains or full length constructs; made in house
# Outline: as §2
# [11] = target: T11, Hck-1 (Homo sapiens, UniProt P08631); assay: Kinase inhibition assay (33P transfer), Hck; settings: Table 6, Hck-1 kinase inhibition class
# T11 construct: Kinases are expressed as either kinase domains or full length constructs; made in house
# [12] = target: T12, Zap-70 (Homo sapiens, UniProt P43403); assay: Kinase inhibition assay (33P transfer), Zap-70; settings: read-out: Zap-1
# T12 construct: Kinases are expressed as either kinase domains or full length constructs; made in house
# T12 sequence (P43403 1-619): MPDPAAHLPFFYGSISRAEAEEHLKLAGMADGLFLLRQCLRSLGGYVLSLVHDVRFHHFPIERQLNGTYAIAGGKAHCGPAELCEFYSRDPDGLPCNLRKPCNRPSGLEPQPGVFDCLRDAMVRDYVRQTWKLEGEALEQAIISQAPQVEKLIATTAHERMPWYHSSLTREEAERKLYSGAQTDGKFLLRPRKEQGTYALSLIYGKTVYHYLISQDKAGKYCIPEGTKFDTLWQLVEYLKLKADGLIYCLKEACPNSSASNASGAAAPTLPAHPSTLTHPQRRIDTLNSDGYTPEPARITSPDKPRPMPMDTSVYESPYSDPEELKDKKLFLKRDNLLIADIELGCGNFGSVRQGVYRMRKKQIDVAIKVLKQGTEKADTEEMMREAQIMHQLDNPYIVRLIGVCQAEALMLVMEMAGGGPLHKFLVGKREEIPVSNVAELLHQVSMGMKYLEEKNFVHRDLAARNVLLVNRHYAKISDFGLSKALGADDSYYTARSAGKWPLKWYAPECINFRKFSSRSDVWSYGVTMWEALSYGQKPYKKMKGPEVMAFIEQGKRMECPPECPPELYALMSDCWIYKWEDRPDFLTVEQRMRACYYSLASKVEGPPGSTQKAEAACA
# Outline: as §1
# [13] = target: T13, Kdr (Homo sapiens, UniProt P35968); assay: Kinase inhibition assay (33P transfer), Kdr; settings: read-out: KDR-1
# T13 construct: Kinases are expressed as either kinase domains or full length constructs; made in house
# Outline: as §1
# [14] = target: T14, ErbB4 (Homo sapiens, UniProt Q15303); assay: Kinase inhibition assay (33P transfer), ErbB4; settings: read-out: ErbB4-1
# T14 construct: Kinases are expressed as either kinase domains or full length constructs; made in house
# [15] = target: T15, c-Met (Homo sapiens, UniProt P08581); assay: Kinase inhibition assay (33P transfer), c-Met; settings: Table 2, kinase inhibition class; read-out: Met-1
# T15 construct: Kinases are expressed as either kinase domains or full length constructs; made in house
# Outline: as §2
# [16] = target: T16, Tek (Homo sapiens, UniProt Q02763); assay: Kinase inhibition assay (33P transfer), Tek; settings: read-out: Tek-1
# T16 construct: Kinases are expressed as either kinase domains or full length constructs; made in house
# Outline: as §2
# [17] = target: T17, Lyn (Homo sapiens, UniProt P07948); assay: Kinase inhibition assay (33P transfer), Lyn; settings: Table 6, Lyn-1 kinase inhibition class
# T17 construct: Kinases are expressed as either kinase domains or full length constructs; made in house
# Outline: as §2
# [18] = target: T18, Itk (Homo sapiens, UniProt Q08881); assay: Kinase inhibition assay (33P transfer), Itk; settings: read-out: Itk-1
# T18 construct: Kinases are expressed as either kinase domains or full length constructs; made in house
# T18 sequence (Q08881 1-620): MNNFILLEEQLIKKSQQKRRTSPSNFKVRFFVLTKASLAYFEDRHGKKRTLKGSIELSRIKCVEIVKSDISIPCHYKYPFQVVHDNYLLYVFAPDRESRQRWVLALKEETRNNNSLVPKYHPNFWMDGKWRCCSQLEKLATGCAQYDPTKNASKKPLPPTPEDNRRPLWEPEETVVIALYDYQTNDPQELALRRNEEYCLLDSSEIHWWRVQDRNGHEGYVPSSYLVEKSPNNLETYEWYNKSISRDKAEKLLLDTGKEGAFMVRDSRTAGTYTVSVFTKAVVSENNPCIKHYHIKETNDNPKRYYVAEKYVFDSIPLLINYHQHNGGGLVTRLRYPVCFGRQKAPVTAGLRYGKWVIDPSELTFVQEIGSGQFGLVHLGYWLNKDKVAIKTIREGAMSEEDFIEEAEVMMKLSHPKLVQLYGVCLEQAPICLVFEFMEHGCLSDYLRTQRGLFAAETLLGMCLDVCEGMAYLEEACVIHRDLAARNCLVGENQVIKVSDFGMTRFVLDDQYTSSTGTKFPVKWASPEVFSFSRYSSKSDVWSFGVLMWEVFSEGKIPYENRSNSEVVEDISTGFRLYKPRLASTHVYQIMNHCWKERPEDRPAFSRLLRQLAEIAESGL
# Outline: as §2
# [19] = target: T19, ErbB2 (Homo sapiens, UniProt P04626); assay: Kinase inhibition assay (33P transfer), ErbB2; settings: read-out: ErbB2-2
# T19 construct: Kinases are expressed as either kinase domains or full length constructs; made in house
# Outline: as §2
# T3 sequence (P08069 31-1367): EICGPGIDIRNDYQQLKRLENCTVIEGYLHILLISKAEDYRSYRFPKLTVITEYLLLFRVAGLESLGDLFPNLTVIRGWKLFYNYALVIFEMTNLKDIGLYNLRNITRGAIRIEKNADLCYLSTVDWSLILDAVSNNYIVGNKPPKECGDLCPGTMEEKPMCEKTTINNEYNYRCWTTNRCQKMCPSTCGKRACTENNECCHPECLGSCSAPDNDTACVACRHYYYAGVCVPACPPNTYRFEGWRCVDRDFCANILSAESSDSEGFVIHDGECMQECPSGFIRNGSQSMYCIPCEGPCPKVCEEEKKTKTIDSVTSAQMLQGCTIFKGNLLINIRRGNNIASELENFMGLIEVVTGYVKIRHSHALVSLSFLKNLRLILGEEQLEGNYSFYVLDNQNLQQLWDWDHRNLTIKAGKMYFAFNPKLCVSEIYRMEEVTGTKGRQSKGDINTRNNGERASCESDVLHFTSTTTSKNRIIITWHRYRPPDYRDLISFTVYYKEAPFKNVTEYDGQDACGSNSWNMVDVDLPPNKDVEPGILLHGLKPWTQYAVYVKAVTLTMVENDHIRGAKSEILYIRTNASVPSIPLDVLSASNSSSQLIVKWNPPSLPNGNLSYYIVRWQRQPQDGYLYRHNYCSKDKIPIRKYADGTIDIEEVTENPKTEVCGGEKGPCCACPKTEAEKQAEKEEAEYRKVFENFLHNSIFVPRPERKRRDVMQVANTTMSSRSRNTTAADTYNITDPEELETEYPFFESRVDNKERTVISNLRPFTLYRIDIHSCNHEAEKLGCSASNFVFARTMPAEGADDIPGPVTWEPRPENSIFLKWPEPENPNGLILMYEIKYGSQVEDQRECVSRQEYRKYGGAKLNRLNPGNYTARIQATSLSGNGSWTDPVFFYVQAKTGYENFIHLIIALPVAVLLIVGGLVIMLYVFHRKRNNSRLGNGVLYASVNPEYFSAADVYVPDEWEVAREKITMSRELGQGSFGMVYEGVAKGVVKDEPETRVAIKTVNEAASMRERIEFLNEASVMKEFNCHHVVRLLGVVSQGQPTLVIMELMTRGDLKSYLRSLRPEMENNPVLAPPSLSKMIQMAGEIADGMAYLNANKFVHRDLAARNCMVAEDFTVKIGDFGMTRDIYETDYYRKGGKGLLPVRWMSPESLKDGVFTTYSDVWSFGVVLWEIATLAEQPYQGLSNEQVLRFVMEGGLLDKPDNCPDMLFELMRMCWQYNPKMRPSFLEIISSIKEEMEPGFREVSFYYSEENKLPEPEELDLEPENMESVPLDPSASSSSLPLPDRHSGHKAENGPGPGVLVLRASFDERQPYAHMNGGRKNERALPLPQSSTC
# T5 sequence (P06241 whole entry, species assumed, the tested form may be a part): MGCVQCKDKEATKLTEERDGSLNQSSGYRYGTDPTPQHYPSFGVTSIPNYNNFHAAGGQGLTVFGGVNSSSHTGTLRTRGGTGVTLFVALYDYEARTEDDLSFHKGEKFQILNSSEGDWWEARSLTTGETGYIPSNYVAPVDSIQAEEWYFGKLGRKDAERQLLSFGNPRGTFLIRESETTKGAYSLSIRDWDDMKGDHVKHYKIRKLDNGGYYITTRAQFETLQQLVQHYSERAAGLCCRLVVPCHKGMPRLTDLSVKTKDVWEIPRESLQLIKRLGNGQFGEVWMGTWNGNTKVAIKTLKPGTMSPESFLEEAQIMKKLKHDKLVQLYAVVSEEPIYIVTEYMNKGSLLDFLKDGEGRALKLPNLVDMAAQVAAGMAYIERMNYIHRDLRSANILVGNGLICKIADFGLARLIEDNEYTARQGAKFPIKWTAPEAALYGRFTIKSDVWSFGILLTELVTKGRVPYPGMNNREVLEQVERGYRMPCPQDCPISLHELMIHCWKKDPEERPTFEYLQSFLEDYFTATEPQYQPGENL
# T14 sequence (Q15303 26-1308, species assumed): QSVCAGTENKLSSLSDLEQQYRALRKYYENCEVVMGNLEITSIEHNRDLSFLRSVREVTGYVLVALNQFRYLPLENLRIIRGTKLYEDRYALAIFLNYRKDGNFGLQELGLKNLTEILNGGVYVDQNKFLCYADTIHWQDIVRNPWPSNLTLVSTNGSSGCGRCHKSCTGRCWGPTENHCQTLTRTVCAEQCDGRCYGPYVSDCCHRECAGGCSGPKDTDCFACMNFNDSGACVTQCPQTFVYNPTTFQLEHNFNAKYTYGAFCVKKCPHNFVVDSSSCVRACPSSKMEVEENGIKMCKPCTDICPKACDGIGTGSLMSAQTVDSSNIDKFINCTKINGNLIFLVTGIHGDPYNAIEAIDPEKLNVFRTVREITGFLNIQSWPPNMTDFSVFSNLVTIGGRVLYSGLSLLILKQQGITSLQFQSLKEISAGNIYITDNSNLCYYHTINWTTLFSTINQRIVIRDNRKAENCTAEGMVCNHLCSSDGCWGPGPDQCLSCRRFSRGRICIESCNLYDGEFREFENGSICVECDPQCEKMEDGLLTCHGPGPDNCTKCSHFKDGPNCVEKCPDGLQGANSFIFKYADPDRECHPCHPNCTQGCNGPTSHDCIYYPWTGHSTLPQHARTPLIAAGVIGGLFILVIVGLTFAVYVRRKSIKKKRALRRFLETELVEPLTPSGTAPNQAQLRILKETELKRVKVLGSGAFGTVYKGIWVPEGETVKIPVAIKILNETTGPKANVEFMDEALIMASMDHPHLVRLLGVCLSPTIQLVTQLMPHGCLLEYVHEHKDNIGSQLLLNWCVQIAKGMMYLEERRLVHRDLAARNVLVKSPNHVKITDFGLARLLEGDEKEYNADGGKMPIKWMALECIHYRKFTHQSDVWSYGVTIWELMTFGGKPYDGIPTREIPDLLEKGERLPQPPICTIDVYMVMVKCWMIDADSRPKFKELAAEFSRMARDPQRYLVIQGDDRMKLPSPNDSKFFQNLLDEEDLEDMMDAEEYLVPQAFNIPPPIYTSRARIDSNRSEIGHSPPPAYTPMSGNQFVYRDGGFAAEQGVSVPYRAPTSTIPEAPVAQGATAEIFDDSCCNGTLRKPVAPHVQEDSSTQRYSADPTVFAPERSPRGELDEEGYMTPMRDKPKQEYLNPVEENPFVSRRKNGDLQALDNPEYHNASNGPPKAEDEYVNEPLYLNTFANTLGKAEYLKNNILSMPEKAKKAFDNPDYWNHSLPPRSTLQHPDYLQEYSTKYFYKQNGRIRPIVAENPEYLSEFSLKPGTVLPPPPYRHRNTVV
# T6 sequence (P00533 25-1210, species assumed): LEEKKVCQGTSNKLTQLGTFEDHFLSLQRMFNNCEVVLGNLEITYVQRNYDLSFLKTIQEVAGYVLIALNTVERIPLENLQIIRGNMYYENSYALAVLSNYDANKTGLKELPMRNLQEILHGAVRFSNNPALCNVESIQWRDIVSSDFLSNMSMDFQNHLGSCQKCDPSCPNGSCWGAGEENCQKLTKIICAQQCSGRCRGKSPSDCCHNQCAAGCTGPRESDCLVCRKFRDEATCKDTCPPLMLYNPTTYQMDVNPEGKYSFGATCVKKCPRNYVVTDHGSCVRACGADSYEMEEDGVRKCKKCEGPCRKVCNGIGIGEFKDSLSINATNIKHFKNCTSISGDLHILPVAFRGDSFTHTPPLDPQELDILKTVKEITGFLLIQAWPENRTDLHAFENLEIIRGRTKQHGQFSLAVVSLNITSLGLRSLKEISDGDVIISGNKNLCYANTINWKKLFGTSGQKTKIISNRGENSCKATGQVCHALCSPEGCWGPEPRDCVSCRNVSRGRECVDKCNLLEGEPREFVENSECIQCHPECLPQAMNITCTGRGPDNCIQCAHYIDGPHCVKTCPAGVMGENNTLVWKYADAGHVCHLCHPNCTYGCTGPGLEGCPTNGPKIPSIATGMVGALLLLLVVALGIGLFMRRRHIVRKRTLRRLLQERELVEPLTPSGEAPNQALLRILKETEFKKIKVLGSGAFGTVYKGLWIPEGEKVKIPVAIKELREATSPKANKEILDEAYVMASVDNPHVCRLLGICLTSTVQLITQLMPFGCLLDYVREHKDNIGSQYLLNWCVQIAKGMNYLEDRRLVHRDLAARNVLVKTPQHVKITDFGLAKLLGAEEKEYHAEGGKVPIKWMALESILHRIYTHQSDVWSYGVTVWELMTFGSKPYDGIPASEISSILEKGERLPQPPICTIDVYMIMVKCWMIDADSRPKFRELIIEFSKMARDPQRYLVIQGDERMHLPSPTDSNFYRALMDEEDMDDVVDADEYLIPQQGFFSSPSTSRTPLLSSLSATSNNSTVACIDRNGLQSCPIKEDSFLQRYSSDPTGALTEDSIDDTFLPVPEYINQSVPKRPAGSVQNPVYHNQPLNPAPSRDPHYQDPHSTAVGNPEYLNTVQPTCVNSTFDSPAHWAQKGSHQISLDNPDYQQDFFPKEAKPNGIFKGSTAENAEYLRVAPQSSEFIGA
# T2 sequence (P06239 whole entry, species assumed, the tested form may be a part): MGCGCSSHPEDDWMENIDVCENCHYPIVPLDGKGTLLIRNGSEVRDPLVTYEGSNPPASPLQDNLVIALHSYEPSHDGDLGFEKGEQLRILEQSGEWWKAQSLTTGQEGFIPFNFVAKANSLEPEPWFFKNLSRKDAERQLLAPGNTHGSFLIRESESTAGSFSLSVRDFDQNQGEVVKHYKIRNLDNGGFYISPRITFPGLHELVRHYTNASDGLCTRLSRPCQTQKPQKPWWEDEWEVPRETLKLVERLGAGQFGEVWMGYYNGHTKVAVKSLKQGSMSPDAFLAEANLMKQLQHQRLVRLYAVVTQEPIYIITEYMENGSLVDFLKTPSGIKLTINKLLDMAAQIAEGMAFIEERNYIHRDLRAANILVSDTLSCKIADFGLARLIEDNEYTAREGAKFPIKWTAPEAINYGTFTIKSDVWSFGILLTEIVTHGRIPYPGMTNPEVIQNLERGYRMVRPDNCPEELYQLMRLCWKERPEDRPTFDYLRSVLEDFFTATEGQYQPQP
IC50 [1] [µM],IC50 [2] [µM],IC50 [3] [µM],IC50 [4] [µM],IC50 [5] [µM],IC50 [6] [µM],IC50 [7] [µM],IC50 [8] [µM],IC50 [9] [µM],IC50 [10] [µM],IC50 [11] [µM],IC50 [12] [µM],IC50 [13] [µM],IC50 [14] [µM],IC50 [15] [µM],IC50 [16] [µM],IC50 [17] [µM],IC50 [18] [µM],IC50 [19] [µM],Compound
0.913 to 5.48,0.913 to 5.48,0.913 to 5.48,> 10.3,> 10.3,< 0.913,< 0.913,5.48 to 7.99,0.913 to 5.48,> 10.3,> 10.3,> 10.3,5.48 to 7.99,> 10.3,> 10.3,> 10.3,0.913 to 5.48,> 10.3,0.913 to 5.48,COc1cc(Nc2ncnc(Nc3ccc(Cl)c4ccccc34)n2)cc(OC)c1OC [Compound 1031]
< 0.817,< 0.817,> 9.19,> 9.19,0.817 to 4.9,0.817 to 4.9,< 0.817,0.817 to 4.9,< 0.817,< 0.817,> 9.19,> 9.19,< 0.817,0.817 to 4.9,> 9.19,4.9 to 7.15,< 0.817,> 9.19,0.817 to 4.9,COc1cc(Nc2ncnc(-n3c(NCc4cccs4)nc4ccccc43)n2)cc(OC)c1OC [Compound 950]
0.796 to 4.78,< 0.796,4.78 to 6.96,> 8.95,< 0.796,< 0.796,< 0.796,< 0.796,0.796 to 4.78,0.796 to 4.78,0.796 to 4.78,> 8.95,0.796 to 4.78,0.796 to 4.78,> 8.95,0.796 to 4.78,< 0.796,6.96 to 8.95,0.796 to 4.78,COc1cc(Nc2ncnc(Nc3cccc4ccccc34)n2)cc(OCCN2CCOCC2)c1OC [Compound 953]
< 0.685,0.685 to 4.11,0.685 to 4.11,> 7.71,> 7.71,> 7.71,< 0.685,> 7.71,< 0.685,0.685 to 4.11,> 7.71,> 7.71,< 0.685,> 7.71,> 7.71,> 7.71,6 to 7.71,> 7.71,> 7.71,COc1cc(Nc2ncnc(-n3c(NCc4ccccn4)nc4ccccc43)n2)cc(OC)c1OCCN1CCOCC1 [Compound 519]
< 0.804,< 0.804,> 9.04,> 9.04,> 9.04,> 9.04,< 0.804,> 9.04,< 0.804,0.804 to 4.82,> 9.04,> 9.04,< 0.804,> 9.04,> 9.04,7.03 to 9.04,> 9.04,> 9.04,> 9.04,COc1cc(Nc2ncnc(-n3c(NCc4cccc(C)c4)nc4ccccc43)n2)cc(OC)c1OC [Compound 515]
